In patent publication US11331271B2, “Buccal, sublingual and intranasal delivery of fospropofol” (The Johns Hopkins University, priority 2016, dated 2022):
Entries after “also recorded” stand apart in the source; their conditions may differ.

Tested on: healthy male volunteers
Test: Human Study 1: treatment-emergent adverse events (TEAE), safety, Modified OAA/S
Assay type: in vivo
Method: In human study 1, fospropofol disodium was formulated as a sterile aqueous solution at a concentration of 20 mg/mL. Each vial provided contained 20 mL of solution, suitable for intravenous injection. Fospropofol was administered as a single dose of 400 mg orally, directly into the duodenum by gastroscopy or intravenously over 10 min. In human study 2, fospropofol disodium in capsules (200 mg) or matching placebo was administered orally.
The first study was an absolute bioavailability study of fospropofol conducted at a single center (PRA Health Sciences) in Groningen, Netherlands, as a three-way crossover study. The study enrolled 7 healthy male volunteers between 18 and 45 years of age inclusive, with a body mass index between 18 and 28 kg/m^2. Subjects stayed in the clinical unit for three consecutive periods of 3 days each, with a 3-day washout, between periods. For six subjects, the order of the administration routes was as follows—period 1: PO, period 2: ID, and period 3: IV. For one subject the order of the administration routes was the following—period 1: ID, period 2: IV and period 3: PO. In this study a single dose of 400 mg was administered by each route. Blinding and placebo control was impractical due to the requirement of unsedated endoscopic administration of fospropofol into the duodenum. Safety and overall pharmacodynamic effect was evaluated based on adverse events, vital signs, electrocardiogram (ECG), Modified Observer's Assessment of Alertness/Sedation (OAA/S) score, clinical laboratory tests, and physical examination.

## CC(C)c1cccc(C(C)C)c1OCOP(=O)(O)O [fospropofol]
400 mg PO
  TEAE NERVOUS SYSTEM DISORDERS, events (E): 6
  TEAE NERVOUS SYSTEM DISORDERS, subjects (%): 57%
  TEAE PSYCHIATRIC DISORDERS, events (E): 1
  TEAE PSYCHIATRIC DISORDERS, subjects (%): 14%
  TEAE TOTAL, events (E): 8
  TEAE TOTAL, subjects (%): 86%
  TEAE dizziness, events (E): 1
  TEAE dizziness, subjects (%): 14%
  TEAE euphoric mood, events (E): 1
  TEAE euphoric mood, subjects (%): 14%
  TEAE nausea, events (E): 1
  TEAE nausea, subjects (%): 14%
  TEAE paresthesia, events (E): 1
  TEAE paresthesia, subjects (%): 14%
  TEAE somnolence, events (E): 4
  TEAE somnolence, subjects (%): 57%
400 mg PO, one subject
  time to resolution of euphoria: 17 min
400 mg oral
  Modified OAA/S score, all subjects at all times: 5
400 mg, Total (PO+ID+IV)
  TEAE BLOOD AND LYMPHATIC SYSTEM DISORDERS, events (E): 1
  TEAE BLOOD AND LYMPHATIC SYSTEM DISORDERS, subjects (%): 14%
  TEAE EYE DISORDERS, events (E): 5
  TEAE EYE DISORDERS, subjects (%): 71%
  TEAE GASTROINTESTINAL DISORDERS, events (E): 6
  TEAE GASTROINTESTINAL DISORDERS, subjects (%): 57%
  TEAE GENERAL DISORDERS AND ADMINISTRATION SITE CONDITIONS, events (E): 12
  TEAE GENERAL DISORDERS AND ADMINISTRATION SITE CONDITIONS, subjects (%): 71%
  TEAE INFECTIONS AND INFESTATIONS, events (E): 1
  TEAE INFECTIONS AND INFESTATIONS, subjects (%): 14%
  TEAE MUSCULOSKELETAL AND CONNECTIVE TISSUE DISORDERS, events (E): 2
  TEAE MUSCULOSKELETAL AND CONNECTIVE TISSUE DISORDERS, subjects (%): 29%
  TEAE NERVOUS SYSTEM DISORDERS, events (E): 40
  TEAE NERVOUS SYSTEM DISORDERS, subjects (%): 100%
  TEAE PSYCHIATRIC DISORDERS, events (E): 3
  TEAE PSYCHIATRIC DISORDERS, subjects (%): 43%
  TEAE REPRODUCTVE SYSTEM AND BREAST DISORDERS, events (E): 1
  TEAE REPRODUCTVE SYSTEM AND BREAST DISORDERS, subjects (%): 14%
  TEAE SKIN AND SUBCUTANEOUS TISSUE DISORDERS, events (E): 2
  TEAE SKIN AND SUBCUTANEOUS TISSUE DISORDERS, subjects (%): 29%
  TEAE TOTAL, subjects (%): 100%
  TEAE burning sensation, events (E): 6
  TEAE burning sensation, subjects (%): 43%
  TEAE catheter site pain, events (E): 1
  TEAE catheter site pain, subjects (%): 14%
  TEAE diplopia, events (E): 1
  TEAE diplopia, subjects (%): 14%
  TEAE disorientation, events (E): 1
  TEAE disorientation, subjects (%): 14%
  TEAE dizziness postural, events (E): 1
  TEAE dizziness postural, subjects (%): 14%
  TEAE dizziness, events (E): 5
  TEAE dizziness, subjects (%): 43%
  TEAE dry mouth, events (E): 1
  TEAE dry mouth, subjects (%): 14%
  TEAE dyspepsia, events (E): 1
  TEAE dyspepsia, subjects (%): 14%
  TEAE ecchymosis, events (E): 1
  TEAE ecchymosis, subjects (%): 14%
  TEAE euphoric mood, events (E): 2
  TEAE euphoric mood, subjects (%): 29%
  TEAE fatigue, events (E): 4
  TEAE fatigue, subjects (%): 43%
  TEAE feeling abnormal, events (E): 1
  TEAE feeling abnormal, subjects (%): 14%
  TEAE feeling cold, events (E): 1
  TEAE feeling cold, subjects (%): 14%
  TEAE feeling drunk, events (E): 1
  TEAE feeling drunk, subjects (%): 14%
  TEAE flatulence, events (E): 1
  TEAE flatulence, subjects (%): 14%
  TEAE genital pruritis male, events (E): 1
  TEAE genital pruritis male, subjects (%): 14%
  TEAE herpes simplex, events (E): 1
  TEAE herpes simplex, subjects (%): 14%
  TEAE lymph node pain, events (E): 1
  TEAE lymph node pain, subjects (%): 14%
  TEAE muscle fatigue, events (E): 2
  TEAE muscle fatigue, subjects (%): 29%
  TEAE nausea, events (E): 2
  TEAE nausea, subjects (%): 14%
  TEAE paresthesia, events (E): 10
  TEAE paresthesia, subjects (%): 86%
  TEAE proctalgia, events (E): 1
  TEAE proctalgia, subjects (%): 14%
  TEAE rash, events (E): 1
  TEAE rash, subjects (%): 14%
  TEAE sluggishness, events (E): 3
  TEAE sluggishness, subjects (%): 43%
  TEAE somnolence, events (E): 11
  TEAE somnolence, subjects (%): 100%
  TEAE speech disorder, events (E): 6
  TEAE speech disorder, subjects (%): 86%
  TEAE subrapubic pain, events (E): 1
  TEAE subrapubic pain, subjects (%): 14%
  TEAE tremor, events (E): 1
  TEAE tremor, subjects (%): 14%
  TEAE visual disturbance, events (E): 4
  TEAE visual disturbance, subjects (%): 57%
400 mg, all routes
  TEAEs considered possibly or probably related to study drug: Seventy
  clinical laboratory results, vital signs, ECG, physical examination: No clinically-relevant abnormalities
  lowest observed Modified OAA/S score: 4
  serious adverse events: No subject experienced a serious adverse event; also recorded: No severe or serious TEAEs
  severity of TEAEs: mild
400 mg, all routes, after dosing
  time to resolution of TEAEs (all but one): ≤ 1 h
400 mg, all routes, postdose
  time by which all subjects had Modified OAA/S scores of 5: ≤ 1.5 h
